From patent US9040518B2, “Chemical compounds” (GlaxoSmithKline LLC, priority 2010, dated 2015)
Structures can show the parent of a compound that is named as a salt.

Biological target: ileal bile acid cotransporter (iBAT) (Homo sapiens (Human), UniProt Q12908)
Test: Human iBAT inhibition: [3H]-taurocholate uptake into HEK293 cells expressing human iBAT
Type: cell-based
Settings: HEK293 cells transduced with human iBAT Bacmam virus, 90 minutes at ambient temperature, mean of at least 2 datapoints
Method: Method for Determination of Human iBAT Inhibition:
In preparation for measurement of bile acid uptake into cells expressing the ileal bile acid cotransporter (iBAT), HEK293 cells were cultured in DMEM/F12 supplemented with 10% FBS. Twenty four hours prior to running an experiment, cells were harvested when at a confluence of 80-90%. Cells were seeded in poly-d-lysine coated plates at 50,000 cells per well, and human iBAT Bacmam virus was added such that each well contains 3.67×10e6 pfu (73.4pfu/cell). Each assay plate was covered with Breathe Easy Seal and placed in an incubator for 24 hours to allow expression of the transporter.
On the day of the uptake experiment, 10 mM HEPES was added to Hank's Balanced Salt Solution, and the pH was adjusted to 7.4 with TRIS (HBSSH). The assay buffer was prepared by adding […] [^3H]-taurocholate and 10 μM cold taurocholate to room temperature HBSSH. A separate washing buffer was prepared by adding 10 μM cold taurocholate to HBSSH (˜30 ml per assay plate) and placed on ice. Using 100% DMSO, 8 point, 3-fold dilution curves for each test compound was prepared starting at 200 μM. Similarly, an 8 point dose response curve was prepared of the control compound [(3R,5R)-3-butyl-3-ethyl-7,8-bis(methyloxy)-5-phenyl-2,3,4,5-tetrahydro-1,4-benzothiazepine 1,1-dioxide (Brieaddy, L. E. WO9605188, 1996)] starting at 1.8 mM. Drug plates were created by adding 3 μL of each concentration to a v-bottom 96-well plate then diluted 60-fold with 177 μL of assay buffer. Plates were removed from the incubator and allowed to cool to ambient temperature. Media was aspirated, and wells were washed once with 300 μL HBSSH. 50 μL of each dose response curve concentration was added in triplicate by column to the assay plates, reserving column 10 for control (assay buffer+1.67% DMSO) and columns 11 and 12 for the control compound. Plates were incubated at ambient temperature for 90 minutes then the plates were aspirated then washed 1× with 300 μL of wash buffer. 220 μL of Microscint 20 was added to each well, and the plates were sealed. The amount of [^3H]-taurocholate in cell lysate was quantitated using a microplate scintillation counter on the following day.
IC50's can be generated using the formula, y=(Vmax*x^n)/(K^n+x^n).

Chain of ileal bile acid cotransporter (iBAT) (Q12908 whole entry): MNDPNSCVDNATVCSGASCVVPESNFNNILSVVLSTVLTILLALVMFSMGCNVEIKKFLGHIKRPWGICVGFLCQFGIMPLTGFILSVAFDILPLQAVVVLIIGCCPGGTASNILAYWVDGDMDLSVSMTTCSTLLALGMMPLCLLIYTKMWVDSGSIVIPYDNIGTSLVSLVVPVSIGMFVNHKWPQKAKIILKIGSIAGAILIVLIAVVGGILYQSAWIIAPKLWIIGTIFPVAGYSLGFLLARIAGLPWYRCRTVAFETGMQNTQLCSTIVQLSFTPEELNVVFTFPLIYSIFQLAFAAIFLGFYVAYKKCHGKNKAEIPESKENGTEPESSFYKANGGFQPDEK

| IC50 [nM] | Structure (SMILES) |
| --- | --- |
| 32 | CCCC[C@]1(CC)CS(=O)(=O)c2cc(C(=O)NCC(C)(C)C(=O)O)c(OC)cc2[C@@H](c2ccccc2)N1 [Example 1, 3-({[(3R,5R)-3-butyl-3-ethyl-7-(methyloxy)-1,1-dioxido-5-phenyl-2,3,4,5-tetrahydro-1,4-benzothiazepin-8-yl]carbonyl}amino)-2,2-dimethylpropanoic acid] |
| 11 | CCCC[C@]1(CC)CS(=O)(=O)c2cc(C(=O)NCS(=O)(=O)O)c(OC)cc2[C@@H](c2ccccc2)N1 [Example 2, ({[(3R,5R)-3-butyl-3-ethyl-7-(methyloxy)-1,1-dioxido-5-phenyl-2,3,4,5-tetrahydro-1,4-benzothiazepin-8-yl]carbonyl}amino)methanesulfonic acid] |
| 2540 | CCCC[C@]1(CC)CS(=O)(=O)c2cc(C(=O)N(CC(=O)O)CC(=O)O)c(OC)cc2[C@@H](c2ccccc2)N1 [Example 4, 2,2′-({[(3R,5R)-3-butyl-3-ethyl-7-(methyloxy)-1,1-dioxido-5-phenyl-2,3,4,5-tetrahydro-1,4-benzothiazepin-8-yl]carbonyl}imino)diacetic acid hydrochloride] |
| 4 | CCCC[C@]1(CC)CS(=O)(=O)c2cc(CS(=O)(=O)O)c(OC)cc2[C@@H](c2ccccc2)N1 [Example 5, [3R,5R)-3-butyl-3-ethyl-7-(methyloxy)-1,1-dioxido-5-phenyl-2,3,4,5-tetrahydro-1,4-benzothiazepin-8-yl]methanesulfonic acid trifluoroacetate salt] |
| 23 | CCCC[C@]1(CC)CS(=O)(=O)c2cc(CP(=O)(O)O)c(OC)cc2[C@@H](c2ccccc2)N1 [Example 6, {[(3R,5R)-3-butyl-3-ethyl-7-(methyloxy)-1,1-dioxido-5-phenyl-2,3,4,5-tetrahydro-1,4-benzothiazepin-8-yl]methyl}phosphonic acid hydrochloride salt] |
| 73 | CCCC[C@]1(CC)CS(=O)(=O)c2cc(C(N)=O)c(OC)cc2[C@@H](c2ccccc2)N1 [Example 8, (3R,5R)-3-butyl-3-ethyl-7-(methyloxy)-5-phenyl-2,3,4,5-tetrahydro-1,4-benzothiazepine-8-carboxamide-1,1-dioxide] |
| 3 | CCCC[C@]1(CC)CS(=O)(=O)c2cc(/C=C/C(=O)O)c(OC)cc2[C@@H](c2ccccc2)N1 [Example 9, (2E)-3-[(3R,5R)-3-butyl-3-ethyl-7-(methyloxy)-1,1-dioxido-5-phenyl-2,3,4,5-tetrahydro-1,4-benzothiazepin-8-yl]-2-propenoic acid ammonium salt] |
| 17 | CCCC[C@]1(CC)CS(=O)(=O)c2cc(CCC(=O)O)c(OC)cc2[C@@H](c2ccccc2)N1 [Example 10, 3-[(3R,5R)-3-butyl-3-ethyl-7-(methyloxy)-1,1-dioxido-5-phenyl-2,3,4,5-tetrahydro-1,4-benzothiazepin-8-yl]propanoic acid] |
| 20 | CCCC[C@]1(CC)CS(=O)(=O)c2cc(CCC(=O)NS(C)(=O)=O)c(OC)cc2[C@@H](c2ccccc2)N1 [Example 11, 3-[(3R,5R)-3-butyl-3-ethyl-7-(methyloxy)-1,1-dioxido-5-phenyl-2,3,4,5-tetrahydro-1,4-benzothiazepin-8-yl]-N-(methylsulfonyl)propanamide] |
| 68 | CCCC[C@]1(CC)CS(=O)(=O)c2cc(CCC(=O)NO)c(OC)cc2[C@@H](c2ccccc2)N1 [Example 12, 3-[(3R,5R)-3-butyl-3-ethyl-7-(methyloxy)-1,1-dioxido-5-phenyl-2,3,4,5-tetrahydro-1,4-benzothiazepin-8-yl]-N-hydroxypropanamide] |
| 167 | CCCC[C@]1(CC)CS(=O)(=O)c2cc(CCC(=O)NCS(=O)(=O)O)c(OC)cc2[C@@H](c2ccccc2)N1 [Example 13, ({3-[(3R,5R)-3-butyl-3-ethyl-7-(methyloxy)-1,1-dioxido-5-phenyl-2,3,4,5-tetrahydro-1,4-benzothiazepin-8-yl]propanoyl}amino)methanesulfonic acid] |
| 276 | CCCC[C@]1(CC)CS(=O)(=O)c2cc(CCC(=O)NCC(=O)O)c(OC)cc2[C@@H](c2ccccc2)N1 [Example 14, N-{3-[(3R,5R)-3-butyl-3-ethyl-7-(methyloxy)-1,1-dioxido-5-phenyl-2,3,4,5-tetrahydro-1,4-benzothiazepin-8-yl]propanoyl}glycine] |
| 504 | CCCC[C@]1(CC)CS(=O)(=O)c2cc(CCC(=O)NCCS(=O)(=O)O)c(OC)cc2[C@@H](c2ccccc2)N1 [Example 15, 2-({3-[(3R,5R)-3-butyl-3-ethyl-7-(methyloxy)-1,1-dioxido-5-phenyl-2,3,4,5-tetrahydro-1,4-benzothiazepin-8-yl]propanoyl}amino)ethanesulfonic acid] |
| 731 | CCCC[C@]1(CC)CS(=O)(=O)c2cc(CCC(=O)NC(C)(C)C(=O)O)c(OC)cc2[C@@H](c2ccccc2)N1 [Example 16, N-{3-[(3R,5R)-3-butyl-3-ethyl-7-(methyloxy)-1,1-dioxido-5-phenyl-2,3,4,5-tetrahydro-1,4-benzothiazepin-8-yl]propanoyl}-2-methylalanine] |
| 3330 | CCCC[C@]1(CC)CS(=O)(=O)c2cc(CCC(=O)NC(CC(=O)O)CC(=O)O)c(OC)cc2[C@@H](c2ccccc2)N1 [Example 17, 3-({3-[(3R,5R)-3-butyl-3-ethyl-7-(methyloxy)-1,1-dioxido-5-phenyl-2,3,4,5-tetrahydro-1,4-benzothiazepin-8-yl]propanoyl}amino)pentanedioic acid trifluoroacetate salt] |
| 728 | CCCC[C@]1(CC)CS(=O)(=O)c2cc(CCC(=O)N(CC(=O)O)CC(=O)O)c(OC)cc2[C@@H](c2ccccc2)N1 [Example 18, 2,2′-({3-[(3R,5R)-3-butyl-3-ethyl-7-(methyloxy)-1,1-dioxido-5-phenyl-2,3,4,5-tetrahydro-1,4-benzothiazepin-8-yl]propanoyl}imino)diacetic acid] |
| 622 | CCCC[C@]1(CC)CS(=O)(=O)c2cc(CCCO)c(OC)cc2[C@@H](c2ccccc2)N1 [Example 19, 3-[(3R,5R)-3-butyl-3-ethyl-7-(methyloxy)-1,1-dioxido-5-phenyl-2,3,4,5-tetrahydro-1,4-benzothiazepin-8-yl]-1-propanol] |
| 4 | CCCC[C@]1(CC)CS(=O)(=O)c2cc(CCCS(=O)(=O)O)c(OC)cc2[C@@H](c2ccccc2)N1 [Example 20, 3-[(3R,5R)-3-butyl-3-ethyl-7-(methyloxy)-1,1-dioxido-5-phenyl-2,3,4,5-tetrahydro-1,4-benzothiazepin-8-yl]-1-propanesulfonic acid] |

| Structure (SMILES) | IC50 [nM] |
| --- | --- |
| CCCC[C@]1(CC)CS(=O)(=O)c2cc(C(=O)NCCS(=O)(=O)O)c(OC)cc2[C@@H](c2ccccc2)N1 [Example 3, 2-({[(3R,5R)-3-butyl-3-ethyl-7-(methyloxy)-1,1-dioxido-5-phenyl-2,3,4,5-tetrahydro-1,4-benzothiazepin-8-yl]carbonyl}amino)ethanesulfonic acid trifluoroacetate] | 2 |
| CCCC[C@]1(CC)CS(=O)(=O)c2cc(CN(CC(=O)O)CC(=O)O)c(OC)cc2[C@@H](c2ccccc2)N1 [Example 7, 2,2′-({[(3R,5R)-3-butyl-3-ethyl-7-(methyloxy)-1,1-dioxido-5-phenyl-2,3,4,5-tetrahydro-1,4-benzothiazepin-8-yl]methyl}imino)diacetic acid hydrochloride salt] | 145 |
